For six compounds, IC50 results are on record in patent US20230233569A1 (Revolution Medicines, Inc., priority 2020, published 2023).

The structures appear in SMILES notation.

One may read the IC50 as the point on the concentration scale where inhibition reaches its midpoint.

The target in assay [1] is KRAS WT (Homo sapiens, UniProt P01116+P62937). Kind of assay: Disruption of BRAF RBD interaction with Ras (FRET / MOA assay, with Cyclophilin A). Particulars: KRAS WT; read-out: KRAS WT FRET data IC50. Type of assay: biochemical. The gist of the method:
(§1)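 Cyclophilin A-dependent ternary complex assay. K-Ras loaded with nucleotide; BRAF RBD as effector. Cpd top 30 μM final, 3 h at 25 °C. Readout: TR-FRET ratio, IC50.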

Assay [2] deals with KRAS G13D (Homo sapiens, UniProt P01116+P62937, G13D). Described as above. Type of assay: biochemical. Particulars: KRAS G13D; read-out: KRAS G13D FRET data IC50. The gist of the method: as §1
Assay [3] deals with KRAS G12C (Homo sapiens, UniProt P01116+P62937, G12C). The assay is described as above. Type of assay: biochemical. Particulars: read-out: KRAS G12C FRET data, IC50. The gist of the method:
as §1

Assay [4] concerns the target NRAS G12C (Homo sapiens, UniProt P01111+P62937, G12C). The assay is described as above. The note with it: NRAS G12C; read-out: NRAS G12C FRET data IC50. Type of assay: biochemical.
Assay [5] deals with KRAS G12D (Homo sapiens, UniProt P01116+P62937, G12D). The description is as above. Type of assay: biochemical. The note with it: read-out: KRAS G12D FRET data, IC50. A digest of the protocol:
as §1

The target of assay [6] is KRAS G12S (Homo sapiens, UniProt P01116+P62937, G12S). Described as above. Type of assay: biochemical. Particulars: read-out: KRAS G12S FRET data, IC50. A digest of the protocol:
as §1

Assay [7] addresses KRAS G12V (Homo sapiens, UniProt P01116+P62937, G12V). The description is as above. Type of assay: biochemical. The note with it: KRAS G12V; read-out: KRAS G12V FRET data IC50. The gist of the method:
as §1

The target of assay [8] is KRAS G13C (Homo sapiens, UniProt P01116+P62937, G13C). Described as above. Type of assay: biochemical. Particulars: read-out: KRAS G13C FRET data, IC50. A digest of the protocol: as §1
Assay [9] concerns NCI-H358 (K-Ras G12C). Kind of assay: CellTiter-Glo cell viability assay, 5-day treatment. Type of assay: cell-based. Particulars: Homo sapiens, NCI-H358, 120 h, 5-day treatment; read-out: H358 Cell Viability assay data (K-Ras G12C, IC50). A digest of the protocol:
(§2)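 Five-day compound treatment of plated cells; luminescent read after ~30 min at RT. Percent-of-DMSO data fit to a four-parameter logistic model.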

In assay [10] the test system is Capan-1 (K-Ras G12V). The assay is described as above. Type of assay: cell-based. The note with it: Homo sapiens, CAPAN-1, 120 h, 5-day treatment; read-out: Capan-1 Cell Viability assay data (K-Ras G12V, IC50). The gist of the method: as §2

Chain of KRAS G12S (P01116 1-169 isoform P01116-2 G12S limits assumed): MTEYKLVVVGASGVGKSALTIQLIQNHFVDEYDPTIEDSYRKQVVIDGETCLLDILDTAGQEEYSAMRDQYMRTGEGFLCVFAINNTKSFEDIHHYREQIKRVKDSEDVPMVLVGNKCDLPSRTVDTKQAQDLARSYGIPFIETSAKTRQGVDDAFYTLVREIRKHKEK
Chain of KRAS G12S (P62937 whole entry): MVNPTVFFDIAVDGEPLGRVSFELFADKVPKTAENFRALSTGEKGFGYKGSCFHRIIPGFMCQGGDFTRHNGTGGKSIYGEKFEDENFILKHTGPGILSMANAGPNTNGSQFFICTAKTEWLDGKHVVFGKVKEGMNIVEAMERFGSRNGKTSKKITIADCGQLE
Chain of KRAS G12D (P01116 1-169 isoform P01116-2 G12D limits assumed): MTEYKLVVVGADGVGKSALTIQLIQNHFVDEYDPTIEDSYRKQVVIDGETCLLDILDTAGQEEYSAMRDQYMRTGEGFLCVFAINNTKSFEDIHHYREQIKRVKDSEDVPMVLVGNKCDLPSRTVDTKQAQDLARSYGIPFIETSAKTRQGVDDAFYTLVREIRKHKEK
Chain of KRAS G12D (P62937 whole entry): as the sequence (P62937 whole entry) above
Chain of KRAS G13C (P01116 1-169 isoform P01116-2 G13C): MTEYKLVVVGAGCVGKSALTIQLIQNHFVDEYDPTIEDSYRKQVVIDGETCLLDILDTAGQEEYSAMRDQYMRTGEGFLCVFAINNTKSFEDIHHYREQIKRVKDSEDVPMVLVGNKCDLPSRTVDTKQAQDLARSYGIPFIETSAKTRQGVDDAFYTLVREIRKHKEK
Chain of KRAS G13C (P62937 whole entry): as the sequence (P62937 whole entry) above
Chain of KRAS G12V (P01116 1-169 isoform P01116-2 G12V limits assumed): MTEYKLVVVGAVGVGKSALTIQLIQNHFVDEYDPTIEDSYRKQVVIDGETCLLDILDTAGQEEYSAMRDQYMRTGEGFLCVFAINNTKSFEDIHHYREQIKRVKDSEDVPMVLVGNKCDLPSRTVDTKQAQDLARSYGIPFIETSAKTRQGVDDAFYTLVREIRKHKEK
Chain of KRAS G12V (P62937 whole entry): as the sequence (P62937 whole entry) above
Chain of NRAS G12C (P01111 whole entry G12C): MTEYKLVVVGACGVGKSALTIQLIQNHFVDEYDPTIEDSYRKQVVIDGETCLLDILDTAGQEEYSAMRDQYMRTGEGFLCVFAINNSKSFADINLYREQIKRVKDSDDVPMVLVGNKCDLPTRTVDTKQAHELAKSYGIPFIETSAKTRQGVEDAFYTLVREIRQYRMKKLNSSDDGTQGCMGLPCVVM
Chain of NRAS G12C (P62937 whole entry): as the sequence (P62937 whole entry) above
Chain of KRAS G13D (P01116 1-169 isoform P01116-2 G13D limits assumed): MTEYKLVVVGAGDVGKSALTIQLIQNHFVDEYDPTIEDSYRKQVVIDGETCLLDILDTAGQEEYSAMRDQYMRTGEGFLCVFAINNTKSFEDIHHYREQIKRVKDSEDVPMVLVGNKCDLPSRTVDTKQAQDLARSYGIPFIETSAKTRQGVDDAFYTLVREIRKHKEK
Chain of KRAS G13D (P62937 whole entry): as the sequence (P62937 whole entry) above
Chain of KRAS G12C (P01116 1-169 isoform P01116-2 G12C): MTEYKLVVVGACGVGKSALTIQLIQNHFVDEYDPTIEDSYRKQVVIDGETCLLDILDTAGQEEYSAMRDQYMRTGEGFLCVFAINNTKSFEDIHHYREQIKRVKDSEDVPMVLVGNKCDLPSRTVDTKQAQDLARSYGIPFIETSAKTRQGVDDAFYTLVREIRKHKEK
Chain of KRAS G12C (P62937 whole entry): as the sequence (P62937 whole entry) above
Chain of KRAS WT (P01116 1-169 isoform P01116-2 limits assumed): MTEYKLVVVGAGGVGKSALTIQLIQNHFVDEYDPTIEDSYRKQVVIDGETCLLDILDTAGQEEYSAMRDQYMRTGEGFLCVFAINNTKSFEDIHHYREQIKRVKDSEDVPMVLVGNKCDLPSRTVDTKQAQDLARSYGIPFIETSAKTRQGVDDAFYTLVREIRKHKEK
Chain of KRAS WT (P62937 whole entry): as the sequence (P62937 whole entry) above

As for `CCn1c(-c2cccnc2[C@H](C)OC)c2c3cc(ccc31)-c1csc(n1)C[C@H](NC(=O)[C@H](C(C)C)N(C)C(=O)N1C[C@H]3CN(C)C[C@H]3C1)C(=O)N1CCC[C@H](N1)C(=O)OCC(C)(C)C2` [Example A313], the concentration for half-maximal inhibition (IC50) was 100 to 1000 nM in assay [1]; 100 to 1000 nM in [2]; 100 to 1000 nM in assay [3]; 10 to 100 nM in assay [4]; 100 to 1000 nM in assay [5]; 100 to 1000 nM in assay [6]. Also, the IC50 was in the range of 100 to 1000 nM in assay [7], 100 to 1000 nM in assay [8], 10 to 100 nM in assay [9] and 10 to 100 nM in assay [10].
In the case of `CCN(CC)C1CN(C(=O)N(C)[C@H](C(=O)N[C@H]2Cc3nc(cs3)-c3ccc4c(c3)c(c(-c3cccnc3[C@H](C)OC)n4CC)CC(C)(C)COC(=O)[C@@H]3CCCN(N3)C2=O)C(C)C)C1` [Example A319], the IC50 fell in the range of 100 to 1000 nM in [1]; 100 to 1000 nM in assay [2]; 100 to 1000 nM in [3]; 10 to 100 nM in [4]; 1000 to 10000 nM in [5]; 100 to 1000 nM in assay [6]. Further, the IC50 in [7] lay in the range of 100 to 1000 nM; in [8], 100 to 1000 nM; in assay [9], 10 to 100 nM; in assay [10] it was 10 to 100 nM.
`CCn1c(-c2cccnc2[C@H](C)OC)c2c3cc(ccc31)-c1csc(n1)C[C@H](NC(=O)[C@H](C(C)C)N(C)C(=O)N1CC(N3CCCC3)C1)C(=O)N1CCC[C@H](N1)C(=O)OCC(C)(C)C2` [Example A329]: the concentration for half-maximal inhibition (IC50) in [1] lay within 100 to 1000 nM; in assay [2], 100 to 1000 nM; in assay [3] it was 100 to 1000 nM; in [4], 100 to 1000 nM; in assay [5], 1000 to 10000 nM; in [6] it was 100 to 1000 nM. For the same compound, the IC50 was in the range of 100 to 1000 nM in assay [7], 100 to 1000 nM in assay [8], 10 to 100 nM in assay [9] and 10 to 100 nM in assay [10].
In the case of `CCn1c(-c2cccnc2[C@H](C)OC)c2c3cc(ccc31)-c1csc(n1)C[C@H](NC(=O)[C@H](C(C)C)N(C)C(=O)N(C)CC(C)C)C(=O)N1CCC[C@H](N1)C(=O)OCC(C)(C)C2` [Example A332], the IC50 in assay [1], in assay [2], in assay [3], in assay [4], in assay [5] and in assay [6] was 100 to 1000 nM throughout. The IC50 in [7], in assay [8], in assay [9] and in [10] was 100 to 1000 nM in each case.
In the case of `CCN(C(=O)N(C)[C@H](C(=O)N[C@H]1Cc2nc(cs2)-c2ccc3c(c2)c(c(-c2cccnc2[C@H](C)OC)n3CC)CC(C)(C)COC(=O)[C@@H]2CCCN(N2)C1=O)C(C)C)C(C)C` [Example A333], the IC50 in assay [1] was 10 to 100 nM; in assay [2], 100 to 1000 nM; in assay [3] it was 10 to 100 nM; in [4] it was 10 to 100 nM; in assay [5], 100 to 1000 nM; in assay [6] it was 100 to 1000 nM. The IC50 in [7] lay within 100 to 1000 nM; in assay [8], 100 to 1000 nM; in assay [9], 10 to 100 nM; in [10], 100 to 1000 nM.
Take `CCn1c(-c2cccnc2[C@H](C)OC)c2c3cc(ccc31)-c1csc(n1)C[C@H](NC(=O)[C@@H](OC(=O)N1CC(N(C)C)C1)C(C)C)C(=O)N1CCC[C@H](N1)C(=O)OCC(C)(C)C2` [Example A339]: the IC50 is 100 to 1000 nM in [1]; 1000 to 10000 nM in assay [2]; 100 to 1000 nM in assay [3]; 100 to 1000 nM in assay [4]; 1000 to 10000 nM in assay [5]; 1000 to 10000 nM in assay [6]. The IC50 was 1000 to 10000 nM in assay [7], 1000 to 10000 nM in assay [8], 100 to 1000 nM in assay [9] and 1000 to 10000 nM in assay [10].
